# Measured values from patent publication US7781565B2 (priority 2006, dated 2010).
# “Also recorded” adds a separate entry of the source.
# Test system: NCI-60 cell lines
# Format: cell-based, human
substance,measurement,value
GCDGGSA,Cell Line with which the peptide (and its tripeptide motif) is associated,H23-Lung
PPGGLKW,Cell Line (NCI-60 cell line the peptide is associated with),SW620-Colon
RAAGSAG,Cell Line (NCI-60 cell line the peptide and its motif are associated with),IGROV1 Ovarian
LRSVGSW,Cell Line (NCI-60 cell line the peptide is associated with),HCT-15 Colon
QRYHLRS,Cell Line the peptide is associated with (peptide recovered from phage library selection on this NCI-60 cell line),CAIK-1 Renal
GAVSVLA,Cell Line (NCI-60 cell line the peptide is associated with),SF-295 CNS
RDGRAVR,Cell Line (NCI-60 cell line the peptide is associated with),KM-12C Colon
QVAGRER,Cell Line with which the peptide (and its tripeptide motif) is associated,CCRF-CEM Leukemia
GLRGVVK,Cell Line (NCI-60 cell line the peptide is associated with),HCT-116 Colon
LVSGYNG,Cell Line with which the peptide (and its tripeptide motif) is associated,Hop-92-Lung
AGGTDRT,Cell Line the peptide is associated with (peptide recovered from phage library selection on this NCI-60 cell line),MDA-MB-231 Breast
FGGRSLS,Cell Line (NCI-60 cell line the peptide is associated with),SNB-75 CNS
TGRLSAA,Cell Line (NCI-60 cell line the peptide and its motif are associated with),UACC62 Melanoma
GGWARAV,Cell Line (NCI-60 cell line the peptide is associated with),SNB-75 CNS
LEGVRLF,Cell Line with which the peptide (and its tripeptide motif) is associated,Hop-62-Lung
GWTMAAS,Cell Line the peptide is associated with (peptide recovered from phage library selection on this NCI-60 cell line),TK-10 Renal
ALVSSHV,Cell Line (NCI-60 cell line the peptide and its motif are associated with),SK-MEL-2 Melanoma
LAAGGEL,Cell Line with which the peptide (and its tripeptide motif) is associated,RPMI-8226-Leukemia
AGDSRLS,Cell Line (NCI-60 cell line the peptide is associated with),HCT-15 Colon
RIGAGHR,Cell Line (NCI-60 cell line the peptide and its motif are associated with),PC3 Prostate
HLRSGFS,Cell Line (NCI-60 cell line the peptide and its motif are associated with),DU-145 Prostate
GLLSLXL,Cell Line with which the peptide (and its tripeptide motif) is associated,CCRF-CEM Leukemia
AVSLAWQ,Cell Line the peptide is associated with (peptide recovered from phage library selection on this NCI-60 cell line),T-47D Breast
LGGSGRR,Cell Line with which the peptide (and its tripeptide motif) is associated,H23-Lung
RALGAAS,Cell Line (NCI-60 cell line the peptide and its motif are associated with),SK-OV-3-3 Ovarian
GLVKLRS,Cell Line the peptide is associated with (peptide recovered from phage library selection on this NCI-60 cell line),MCF-7 Breast
AAVWQMK,Cell Line (NCI-60 cell line the peptide is associated with),SNB-19 CNS; also recorded: SF-539 CNS
GRGSGGF,Cell Line (NCI-60 cell line the peptide is associated with),LOX-IMVI Melanoma
GTHSGLR,Cell Line (NCI-60 cell line the peptide and its motif are associated with),SK-MEL-2 Melanoma
VTRIRVS,Cell Line (NCI-60 cell line the peptide and its motif are associated with),UACC 257 Melanoma
RMLVSSF,Cell Line (NCI-60 cell line the peptide and its motif are associated with),UACC 257 Melanoma
ARGVAEY,Cell Line (NCI-60 cell line the peptide is associated with),SF-295 CNS
KVSVASL,Cell Line (NCI-60 cell line the peptide and its motif are associated with),SK-MEL-5 Melanoma
IAAVWRS,Cell Line (NCI-60 cell line the peptide is associated with),HCT-116 Colon
LEAGSQL,Cell Line with which the peptide (and its tripeptide motif) is associated,H226-Lung
YLGRRVS,Cell Line (NCI-60 cell line the peptide is associated with),SW620-Colon
VLRAASR,Cell Line (NCI-60 cell line the peptide is associated with),HT-29 Colon
EGSVDAH,Cell Line (NCI-60 cell line the peptide is associated with),SW620-Colon
PTSGRLV,Cell Line (NCI-60 cell line the peptide and its motif are associated with),PC3 Prostate
LLSAARF,Cell Line the peptide is associated with (peptide recovered from phage library selection on this NCI-60 cell line),MDA-MB-231 Breast
RAGGGAP,Cell Line the peptide is associated with (peptide recovered from phage library selection on this NCI-60 cell line),ACHN Renal
SRAVIDM,Cell Line with which the peptide (and its tripeptide motif) is associated,CCRF-CEM Leukemia
AAVFVRS,Cell Line with which the peptide (and its tripeptide motif) is associated,K-562-Leukemia
SGPAGSF,Cell Line (NCI-60 cell line the peptide and its motif are associated with),OVCAR-4 Ovarian
RRGSGGL,Cell Line with which the peptide (and its tripeptide motif) is associated,H23-Lung
DLLRYLA,Cell Line with which the peptide (and its tripeptide motif) is associated,H322-Lung
GLGLRLG,Cell Line (NCI-60 cell line the peptide and its motif are associated with),OVCAR-8 Ovarian
GSGRQLP,Cell Line the peptide is associated with (peptide recovered from phage library selection on this NCI-60 cell line),BT-549 Breast
SVLGGRL,Cell Line with which the peptide (and its tripeptide motif) is associated,EKVX-Lung
DVWVAVS,Cell Line (NCI-60 cell line the peptide and its motif are associated with),OVCAR-4 Ovarian
LSFSRGS,Cell Line with which the peptide (and its tripeptide motif) is associated,HL-60-Leukemia
ACGSGLD,Cell Line (NCI-60 cell line the peptide and its motif are associated with),SK-MEL-5 Melanoma
RVEAAVP,Cell Line (NCI-60 cell line the peptide and its motif are associated with),SK-OV-3-3 Ovarian
LGGRADF,Cell Line with which the peptide (and its tripeptide motif) is associated,CCRF-CEM Leukemia
PLLRQQL,Cell Line the peptide is associated with (peptide recovered from phage library selection on this NCI-60 cell line),ACHN Renal
FRVSLGY,Cell Line the peptide is associated with (peptide recovered from phage library selection on this NCI-60 cell line),ACHN Renal
SPGRVAD,Cell Line (NCI-60 cell line the peptide and its motif are associated with),IGROV1 Ovarian
RQKCGGL,Cell Line (NCI-60 cell line the peptide is associated with),HT-29 Colon
GLLSSFS,Cell Line (NCI-60 cell line the peptide and its motif are associated with),M14 Melanoma
IAASYRG,Cell Line (NCI-60 cell line the peptide is associated with),LOX-IMVI Melanoma
VMGGPSL,Cell Line with which the peptide (and its tripeptide motif) is associated,Hop-62-Lung
TGRSSFW,Cell Line the peptide is associated with (peptide recovered from phage library selection on this NCI-60 cell line),TK-10 Renal
ANAASSP,Cell Line (NCI-60 cell line the peptide and its motif are associated with),SK-MEL-5 Melanoma
SAGSHPA,Cell Line the peptide is associated with (peptide recovered from phage library selection on this NCI-60 cell line),SN12C Renal
RVRGVLD,Cell Line the peptide is associated with (peptide recovered from phage library selection on this NCI-60 cell line),BT-549 Breast
REGGSDT,Cell Line the peptide is associated with (peptide recovered from phage library selection on this NCI-60 cell line),NCI/ADR-RES Breast
SGGGGLG,Cell Line (NCI-60 cell line the peptide is associated with),SF-268 CNS
AASGSYY,Cell Line (NCI-60 cell line the peptide is associated with),HT-29 Colon
GRVHLMP,Cell Line with which the peptide (and its tripeptide motif) is associated,Hop-92-Lung
LLSPRGT,Cell Line (NCI-60 cell line the peptide is associated with),SF-295 CNS
LRSWLLF,Cell Line (NCI-60 cell line the peptide is associated with),HT-29 Colon
VAASESH,Cell Line with which the peptide (and its tripeptide motif) is associated,Hop-62-Lung
FSKMRAS,Cell Line (NCI-60 cell line the peptide and its motif are associated with),DU-145 Prostate
RGAVREM,Cell Line the peptide is associated with (peptide recovered from phage library selection on this NCI-60 cell line),SN12C Renal
GGAVLVA,Cell Line with which the peptide (and its tripeptide motif) is associated,CCRF-CEM Leukemia
SAGVSDS,Cell Line (NCI-60 cell line the peptide and its motif are associated with),SK-MEL-2 Melanoma
ATIPGGS,Cell Line (NCI-60 cell line the peptide is associated with),LOX-IMVI Melanoma
GSGILDL,Cell Line with which the peptide (and its tripeptide motif) is associated,EKVX-Lung
SWGSGGS,Cell Line with which the peptide (and its tripeptide motif) is associated,Hop-92-Lung
FPGSAGS,Cell Line the peptide is associated with (peptide recovered from phage library selection on this NCI-60 cell line),ACHN Renal
LLGIGGS,Cell Line (NCI-60 cell line the peptide and its motif are associated with),SK-MEL-28 Melanoma
RGVFYGK,Cell Line with which the peptide (and its tripeptide motif) is associated,H322-Lung
GLRDGVE,Cell Line the peptide is associated with (peptide recovered from phage library selection on this NCI-60 cell line),A498 Renal
AECCGGL,Cell Line the peptide is associated with (peptide recovered from phage library selection on this NCI-60 cell line),ACHN Renal
LASLGVG,Cell Line with which the peptide (and its tripeptide motif) is associated,H23-Lung
GFGRLLW,Cell Line the peptide is associated with (peptide recovered from phage library selection on this NCI-60 cell line),A498 Renal
ASVRAGR,Cell Line with which the peptide (and its tripeptide motif) is associated,Molt-4-Leukemia
LVYSGRL,Cell Line (NCI-60 cell line the peptide is associated with),SW620-Colon
FGLGSSR,Cell Line with which the peptide (and its tripeptide motif) is associated,Hop-62-Lung
AGLGLLD,Cell Line (NCI-60 cell line the peptide and its motif are associated with),SK-OV-3-3 Ovarian
RVDRGSL,Cell Line the peptide is associated with (peptide recovered from phage library selection on this NCI-60 cell line),CAIK-1 Renal
TELVSWS,Cell Line with which the peptide (and its tripeptide motif) is associated,H322-Lung
PVFRGGS,Cell Line the peptide is associated with (peptide recovered from phage library selection on this NCI-60 cell line),MDA-MB-231 Breast
FGGSGVL,Cell Line with which the peptide (and its tripeptide motif) is associated,H460-Lung
AVSGRSL,Cell Line (NCI-60 cell line the peptide and its motif are associated with),M14 Melanoma
VGSVVGR,Cell Line with which the peptide (and its tripeptide motif) is associated,Hop-92-Lung
